Converted amounts (≈) assume the structure as drawn.
How the values were obtained:
[1] = Solubility of PFOCs in membranes of erythrocytes; format: physicochemical; details: 37° C.
[2] = Solubility of PFOCs in olive oil lipids; format: physicochemical; details: oil or lipid, 37° C.

| Compound | Solubility in membranes [1] | solubility [2] |
| --- | --- | --- |
| FC(F)(F)C(F)(F)C(F)(F)N(C(F)(F)C(F)(F)C(F)(F)F)C(F)(F)C(F)(F)C(F)(F)F [Perfluorotripropylamine] | 0.3 ml per kg of dry membranes | 5.1 mM (≈ 2660 µg/mL) |
| FC(F)(F)C1(F)C(F)(F)C(F)(F)C(F)(N2C(F)(F)C(F)(F)C(F)(F)C(F)(F)C2(F)F)C(F)(F)C1(F)F (centres unmarked) [perfluoro-N-(4-methylcyclohexyl)-piperidine] | 0.5 ml per kg of dry membranes | 7.6 mM (≈ 4520 µg/mL) |
| FC(F)(F)C(F)(F)C(F)(F)C(F)(F)N(C(F)(F)C(F)(F)C(F)(F)C(F)(F)F)C(F)(F)C(F)(F)C(F)(F)C(F)(F)F [Perfluorotributylamine] | 0.08 ml per kg of dry membranes | 1.2 mM (≈ 805 µg/mL) |
| FC1(F)C(F)(F)C(F)(F)C2(F)C(F)(F)C(F)(F)C(F)(F)C(F)(F)C2(F)C1(F)F (centres unmarked) [Perfluorodecalin (PFD), perfluorodecalin] | 2.0 ml per kg of dry membranes | 26 mM (≈ 12000 µg/mL) |

Reference: patent US6562872B1, “Emulsion of perfluoroorganic compounds for medical purposes, a process for the preparation thereof and methods for treating and preventing diseases with the use thereof” (Otkrytoe Aktsionernoe Obschestvo Naucho-Proizvodstven-Naya …, priority 2001, dated 2003)
